Active and inactive are the calls of the source.
Columns and labels:
[1] = A Cell Based Secondary Assay To Explore Cytotoxicity of Compounds that Sensitize Mycobacterium Tuberculosis to Beta-Lactam Antibiotics.; format: functional
[2] = Luminescence Cell-Based Dose Retest to Confirm Inhibitors of Cancer Stem Cells. [Related pubchem assays (depositor defined):AID2717, AID2721]; format: functional; conditions: Homo sapiens
[3] = viability of uninfected HEp-2 cells – cell-based, HTS, cytotoxicity control for RSV inhibitor project, dose response (AID 2410); format: functional; conditions: human respiratory syncytial virus
Estrogen receptor = target: T1, Estrogen receptor (Homo sapiens, UniProt P03372);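 further: potency for inhibiting coactivator peptide recruitment to the receptor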
T1 sequence (P03372 whole entry): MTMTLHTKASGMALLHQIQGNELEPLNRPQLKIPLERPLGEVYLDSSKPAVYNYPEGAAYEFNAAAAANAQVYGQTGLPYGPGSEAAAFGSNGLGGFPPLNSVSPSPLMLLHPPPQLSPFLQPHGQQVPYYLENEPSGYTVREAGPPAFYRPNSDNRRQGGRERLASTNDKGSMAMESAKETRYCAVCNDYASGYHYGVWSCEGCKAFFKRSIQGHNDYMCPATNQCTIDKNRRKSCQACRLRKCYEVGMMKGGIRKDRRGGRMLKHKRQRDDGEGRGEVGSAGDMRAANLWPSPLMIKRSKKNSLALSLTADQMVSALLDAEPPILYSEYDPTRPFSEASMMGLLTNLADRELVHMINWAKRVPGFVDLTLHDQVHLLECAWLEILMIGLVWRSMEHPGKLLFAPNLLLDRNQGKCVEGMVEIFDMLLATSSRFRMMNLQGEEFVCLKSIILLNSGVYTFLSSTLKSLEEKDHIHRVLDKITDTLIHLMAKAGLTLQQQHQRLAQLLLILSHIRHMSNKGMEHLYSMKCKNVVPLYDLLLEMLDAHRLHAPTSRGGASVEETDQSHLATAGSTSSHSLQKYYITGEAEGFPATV

Aminopeptidase N = target: T2, Aminopeptidase N (Plasmodium falciparum FcB1/Columbia, UniProt O96935); assay: malaria alanyl aminopeptidase activity blockers – biochemical, fluorogenic H-Leu-NHMec substrate, 1536-well (AID 1445); set-up: species or system Plasmodium falciparum 3D7, 3D7
T2 sequence (O96935 whole entry): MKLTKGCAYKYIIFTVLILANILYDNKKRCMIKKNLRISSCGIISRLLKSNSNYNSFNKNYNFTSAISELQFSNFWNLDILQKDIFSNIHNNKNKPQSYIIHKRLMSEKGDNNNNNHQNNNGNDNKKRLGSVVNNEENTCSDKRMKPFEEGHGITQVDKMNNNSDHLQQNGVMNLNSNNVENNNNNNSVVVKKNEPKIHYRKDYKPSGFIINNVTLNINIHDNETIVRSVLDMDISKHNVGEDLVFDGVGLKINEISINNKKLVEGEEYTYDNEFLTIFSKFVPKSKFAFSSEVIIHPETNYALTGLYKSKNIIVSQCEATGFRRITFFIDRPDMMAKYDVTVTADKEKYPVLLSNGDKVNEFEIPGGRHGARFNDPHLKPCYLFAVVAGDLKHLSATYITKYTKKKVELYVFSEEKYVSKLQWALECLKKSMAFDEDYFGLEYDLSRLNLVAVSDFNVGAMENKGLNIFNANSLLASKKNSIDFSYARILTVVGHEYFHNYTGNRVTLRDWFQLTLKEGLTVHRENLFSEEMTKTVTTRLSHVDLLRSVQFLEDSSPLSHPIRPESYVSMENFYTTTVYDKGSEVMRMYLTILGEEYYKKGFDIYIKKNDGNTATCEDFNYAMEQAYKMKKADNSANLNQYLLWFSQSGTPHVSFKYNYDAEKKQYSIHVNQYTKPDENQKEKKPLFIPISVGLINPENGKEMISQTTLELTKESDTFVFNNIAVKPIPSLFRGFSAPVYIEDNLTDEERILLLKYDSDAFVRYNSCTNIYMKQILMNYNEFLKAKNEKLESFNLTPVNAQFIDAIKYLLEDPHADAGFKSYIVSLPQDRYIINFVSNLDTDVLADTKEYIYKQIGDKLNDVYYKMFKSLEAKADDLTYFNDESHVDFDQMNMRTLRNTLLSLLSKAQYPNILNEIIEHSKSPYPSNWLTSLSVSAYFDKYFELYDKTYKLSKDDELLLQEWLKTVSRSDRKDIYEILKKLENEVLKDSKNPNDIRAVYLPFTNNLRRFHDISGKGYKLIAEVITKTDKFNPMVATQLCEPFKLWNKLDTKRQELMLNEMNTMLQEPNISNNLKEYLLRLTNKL

[4] = viability of PTEN-deleted HCT116 cells – cell-based, HCT116 PTEN knockout, dose response (AID 1047); format: functional;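 further: HCT116 colon tumor cells with PTEN knocked out; cells exposed to compound for 60 hours before readout; potency for loss of cell viability measured by luminescence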
[5] = viability of HCT116 lacking mutant beta-catenin – cell-based, human colon tumor, dose response (AID 1045); format: functional;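 further: HCT116 colon tumor cells with beta catenin knocked out; cells exposed to compound for 60 hours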
[6] = HEK-293T viability loss after treatment – luminescence, T-cell screen hits, cytotoxicity control for TCR NF-kB inhibitor project, dose response (AID 489026); format: functional, cell-based;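 further: cells exposed to compound about 14 hours before the viability readout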
[7] = target: Eukaryotic translation initiation factor 4E (Mus musculus, UniProt P63073); assay: blockers of eIF4G binding by eIF4E – biochemical, TR-FRET, dose response (AID 855); format: functional;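 further: potency for disrupting eIF4E binding to eIF4GI seen as loss of FRET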
Eukaryotic translation initiation factor 4E, sequence (P63073 whole entry): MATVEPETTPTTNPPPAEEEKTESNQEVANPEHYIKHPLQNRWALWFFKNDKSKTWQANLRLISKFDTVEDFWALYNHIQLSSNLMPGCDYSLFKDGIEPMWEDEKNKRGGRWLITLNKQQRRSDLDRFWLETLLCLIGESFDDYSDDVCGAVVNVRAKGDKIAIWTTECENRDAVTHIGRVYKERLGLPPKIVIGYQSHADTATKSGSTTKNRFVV

cells = format: functional
[8] = target: T3, Carboxy-terminal domain RNA polymerase II polypeptide A small phosphatase 1 (Homo sapiens, UniProt Q9GZU7); assay: CTDSP1 inhibitors, concentration-response, biochemical, absorbance readout, ultra-high-throughput screen actives (AID 540297); format: functional
T3 sequence (Q9GZU7 whole entry): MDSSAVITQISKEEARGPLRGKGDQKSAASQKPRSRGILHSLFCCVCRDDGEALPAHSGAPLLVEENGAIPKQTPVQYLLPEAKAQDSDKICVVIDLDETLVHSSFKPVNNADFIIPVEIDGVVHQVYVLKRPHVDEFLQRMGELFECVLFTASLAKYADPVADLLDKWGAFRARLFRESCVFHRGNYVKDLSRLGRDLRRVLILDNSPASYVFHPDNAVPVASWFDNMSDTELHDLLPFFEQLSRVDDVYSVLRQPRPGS

Nonstructural protein 1 = Nonstructural protein 1 (Influenza A virus, UniProt Q194T2); format: functional, Influenza A virus (A/California/07/2009(H1N1))
Nonstructural protein 1, sequence (Q194T2 whole entry, the tested form may be a part): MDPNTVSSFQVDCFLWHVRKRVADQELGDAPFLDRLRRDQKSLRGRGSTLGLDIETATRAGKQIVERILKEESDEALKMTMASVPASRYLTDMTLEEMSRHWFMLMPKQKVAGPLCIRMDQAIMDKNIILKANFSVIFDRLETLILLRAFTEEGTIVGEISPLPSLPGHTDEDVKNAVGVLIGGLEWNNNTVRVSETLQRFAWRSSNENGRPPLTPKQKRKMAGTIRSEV

[9] = HIV-1 AD8 envelope cell-cell fusion blockers – cherry-pick, dose response (AID 652062); format: functional, cell-based;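 further: luciferase signal from cell-cell fusion driven by HIV-1 clade B AD8 Env; potency is for inhibitors of fusion seen as a drop in luminescence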
[10] = blockers of HIV-1 envelope-mediated cell-cell fusion – cherry-pick, dose response (AID 652057); format: functional, cell-based
[11] = target: DNA dC->dU-editing enzyme APOBEC-3G (Homo sapiens, UniProt Q9HC16); assay: Dose Response confirmation of small molecule APOBEC3G DNA Deaminase Inhibitors via a fluorescence-based single-stranded DNA deaminase assay. [Related pubchem assays (depositor defined):AID493012, AID493028]; format: functional
DNA dC->dU-editing enzyme APOBEC-3G, sequence (Q9HC16 whole entry): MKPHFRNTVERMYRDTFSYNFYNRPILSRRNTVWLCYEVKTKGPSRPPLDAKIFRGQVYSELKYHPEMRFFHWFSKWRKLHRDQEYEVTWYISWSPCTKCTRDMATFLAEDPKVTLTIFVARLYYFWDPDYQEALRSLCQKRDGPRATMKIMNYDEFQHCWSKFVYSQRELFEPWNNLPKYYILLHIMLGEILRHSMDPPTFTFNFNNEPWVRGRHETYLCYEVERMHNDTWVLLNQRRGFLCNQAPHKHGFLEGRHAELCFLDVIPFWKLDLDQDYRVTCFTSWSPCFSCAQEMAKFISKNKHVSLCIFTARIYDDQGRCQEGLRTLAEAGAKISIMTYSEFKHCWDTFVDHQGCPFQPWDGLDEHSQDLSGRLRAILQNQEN

[12] = Trypanosoma cruzi growth suppression in host cells – NIH3T3 host cells, beta-gal luminescence, confirmation (AID 2044); format: functional, cell-based;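 further: intracellular parasites grown in NIH/3T3 mouse fibroblasts as host cells; luminescent beta-galactosidase reporter signal from transgenic T. cruzi replicating inside host cells; inhibitors lower the luminescence signal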
[13] = target: T4, Microphthalmia-associated transcription factor (Homo sapiens, UniProt O75030); assay: reducers of TRPM1 reporter luminescence, concentration series – cell-based, SK-MEL-5, cherry-picked, set 3, MITF inhibitor project, dose response (AID 493073); format: functional;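 further: SK-MEL-5 melanoma cells with luciferase driven by the MITF target TRPM1 promoter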
T4 sequence (O75030 whole entry): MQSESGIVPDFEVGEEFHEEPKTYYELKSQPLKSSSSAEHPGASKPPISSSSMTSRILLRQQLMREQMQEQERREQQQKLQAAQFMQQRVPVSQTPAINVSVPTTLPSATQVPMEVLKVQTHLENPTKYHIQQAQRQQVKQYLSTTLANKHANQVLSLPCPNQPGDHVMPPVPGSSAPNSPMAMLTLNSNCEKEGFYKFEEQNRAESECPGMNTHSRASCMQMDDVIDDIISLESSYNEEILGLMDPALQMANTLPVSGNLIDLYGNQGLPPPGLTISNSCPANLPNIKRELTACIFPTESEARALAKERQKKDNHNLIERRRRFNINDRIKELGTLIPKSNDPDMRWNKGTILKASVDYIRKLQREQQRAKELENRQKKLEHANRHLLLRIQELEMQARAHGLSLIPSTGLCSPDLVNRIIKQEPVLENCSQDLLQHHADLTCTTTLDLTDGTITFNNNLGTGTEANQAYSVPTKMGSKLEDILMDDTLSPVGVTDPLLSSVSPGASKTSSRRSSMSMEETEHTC

[14] = NIH3T3 cell viability loss – ATP luminescence, mouse fibroblasts, counter-screen, dose response (AID 2010); format: functional, cell-based;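 further: cells exposed to compound for about 90 hours before reading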

NC(=O)CC(NC(=O)Cc1ccc(Br)cc1)c1ccc(NC2CCCCCC2)c([N+](=O)[O-])c1 (configuration not stated)
CC50 [1]: > 40 µM (active)
AC50 [2]: 4.61 µM (active)

Cc1ccc2nc(NS(C)(=O)=O)sc2c1
CC50 [3]: 23 µM (active)

Cc1ccc(CNc2nc3ccccc3n3nnnc23)cc1
IC50 (Estrogen receptor): > 50 µM (not active)

CN(C(=O)c1ccccc1OCc1ccc(Cl)cc1)c1ccccc1
CC50 [3]: 25.7 µM (active)

COc1cc2cnc(-c3ccsc3)c(-c3ccc(F)cc3)c2cc1OC
CC50 [1]: > 40 µM (active)

COc1cc(NS(=O)(=O)c2ccc(NC(=S)NC(=O)c3cccs3)cc2)nc(OC)n1
IC50 (Aminopeptidase N): 38.9 µM (active)

CN1/C(=C\C(=O)c2cccnc2)Sc2ccccc21
CC50 [3]: 26.5 µM (active)

CN=C(S)N=NC1=C(O)c2cccc3cccc1c23
CC50 [1]: 28.2 µM (active)
EC50 [4]: 13.9 µM (active)
EC50 [5]: 10.5 µM (active)

O=[N+]([O-])c1ccc(Sc2ccc(Cl)c(Cl)c2)nc1
IC50 [6]: > 80 µM (inactive)

CCn1c(CNC(=O)c2cccs2)nnc1SCC(=O)NCCc1ccccc1
IC50 (Aminopeptidase N): 90 µM (active)

COc1ccc(-c2nc(C(N)=O)c3[nH]c(=O)n(-c4cccc(Cl)c4)c3n2)cc1OC
IC50 (Estrogen receptor): 6.26 µM (active)

COc1ccc(C(=O)CN2C(=O)NC(C)(c3ccc(C)cc3)C2=O)cc1OC (configuration not stated)
IC50 [7]: > 64 µM (inactive)

Cc1cccc(NC(=O)c2ccc(OC3CSC3)cc2)c1
IC50 (cells): 44 µM (active)

CC(=O)c1c(C)[nH]c(C(=O)COc2ccc(C#N)cc2)c1C
IC50 (Estrogen receptor): 34 µM (not active)

CCSc1nc2ccccc2c(=O)n1CCc1ccc(OC)c(OC)c1
CC50 [1]: > 40 µM (active)

CCOc1ccc(NC(=O)c2cc3cc4ccc(OC)cc4nc3o2)cc1
IC50 (Estrogen receptor): 47.3 µM (not active)
IC50 [8]: 6.92 µM (active)

Cc1ccc2cc(CCNS(=O)(=O)c3ccc(Br)cc3)c(O)nc2c1C
CC50 [3]: 22.1 µM (active)

COc1cc(CNc2ccc(NC(C)=O)cc2)ccc1OCc1ccccc1C
CC50 [1]: > 40 µM (active)

CN1CCN(C(=S)SCC(=O)Nc2ccc(Cl)cc2C(=O)c2ccccc2)CC1
IC50 (Nonstructural protein 1): > 100 µM (active)

Cc1ccc(S(=O)(=O)NNC2=NS(=O)(=O)c3ccccc32)c(C)c1
IC50 (Aminopeptidase N): 9.97 µM (active)

COc1cc(CNCCO)cc(Br)c1OCc1ccccc1Cl
CC50 [1]: 20.3 µM (active)

CCCCc1nc(NCCNC(=O)c2ccco2)c(C#N)c2c1CSC(C)(C)C2
IC50 (Aminopeptidase N): 85.3 µM (active)

COc1ccc(OC2C(=O)N(Cc3ccc4c(c3)OCO4)C2c2cccs2)cc1 (configuration not stated)
AC50 [9]: 1.71 µM (active)
AC50 [10]: 53.1 µM (active)

CCN(CC)c1ccc(S(=O)(=O)N(CC)CC)cc1NC(=O)c1cccnc1
IC50 (Aminopeptidase N): 28.5 µM (active)

CCN(CC)S(=O)(=O)c1ccc(OC)c(NC(=O)Cc2cccs2)c1
IC50 [8]: 4.5 µM (active)
IC50 [7]: 50 µM (inactive)

N#C/C(=C\c1ccc(OC(=O)c2ccc(Br)s2)cc1)c1nc2ccccc2[nH]1
IC50 [8]: 1.78 µM (active)
IC50 [7]: > 64 µM (inactive)

CC1CCN(c2c(NCC3CCC(C(=O)NCCc4ccc(Cl)cc4)CC3)c(=O)c2=O)CC1 (configuration not stated)
CC50 [3]: > 50 µM (active)

O=C1CCC(C(=O)Nc2cccc(S(=O)(=O)Nc3ccccc3F)c2)=NN1
IC50 [11]: 24.6 µM (active)

C[C@H](NC(=O)c1ccccc1)C(=O)Nc1nc(-c2ccccn2)cs1
IC50 (Nonstructural protein 1): 16.3 µM (active)

Cc1ccc(S(=O)(=O)N(C)C[C@@H]2Oc3ccc(NC(=O)Cn4cnnn4)cc3CC(=O)N([C@H](C)CO)C[C@@H]2C)cc1
AC50 [9]: 7.7 µM (active)
AC50 [10]: 2.96 µM (active)

C[C@H]1CN([C@@H](C)CO)C(=O)c2ccccc2-c2ccccc2CO[C@H]1CN(C)S(=O)(=O)c1cccc(C#N)c1
AC50 [9]: 0.743 µM (active)
AC50 [10]: < 0.26 µM (active)

CCOC(=O)C(C)Oc1cccc2c(=O)n(CC(=O)NCc3ccco3)ccc12 (configuration not stated)
IC50 [6]: > 80 µM (inactive)

O=C(N/N=C/c1ccc([N+](=O)[O-])o1)c1ccccc1-n1cccc1
CC50 [1]: 32.1 µM (active)
EC50 [12]: 0.137 µM (active)
AC50 [13]: 17.1 µM (active)
EC50 [14]: > 60 µM (not active)

O=[N+]([O-])c1cc(/C=N/N=C(/Nc2ccccn2)c2ccccn2)ccc1O
IC50 (Nonstructural protein 1): 2.46 µM (active)

COc1ccccc1-c1noc(-c2ccccc2)n1
IC50 [7]: > 64 µM (inactive)
